{"source": "patent US20260218439A1", "about": "“METHOD OF TREATING OR REDUCING CANCER COMPRISING ADMINISTERING A COMPOUND 3-(BENZO[D][1,3]DIOXOL-5-YL)-7-(1-HYDROXYPROPAN-2-YL)-1-(1H-INDOLE-3-YL)-6,7-DIHYDRO-3H-OXAZOLE[3,4-A]PYRAZINE-5,8-DIONE” (BIOLAB SANUS FARMACEUTICA LTDA, priority 2019, published 2026)", "key": {"[1]": {"system": "MNK45-human gastric cancer", "experiment": "Cell proliferation inhibition (CYQuant intracellular DNA), MNK45", "assay_type": "cell-based", "details": "72 hours", "description": "(§1) For the execution of the assay, the compounds are diluted in DMSO 100% (v/v) at a concentration of 1000 μM and subsequently diluted in a Sodium Chloride solution 0.9% to obtain the storage solutions of interest for use in the assays. The final concentration of interest will be directly diluted in the cell culture medium. For the assay there are used the following tumor cell lineages: PC3-human prostate cancer cells; LNCAP-human prostate cancer cells; DU145-human prostate cancer; MNK45-human gastric cancer and RT4-human bladder cancer cells. The tumor cell lineages are maintained in culture according to standard procedures established by the Cell Bank of Rio de Janeiro (lineage place of origin) Procedure: • For the assay, the tumor cells are seeded in the concentration of 10.000 cells per well (final volume of the reaction of […]), the plate is incubated for 8 hours, for the cells to adhere to the wall of the wells. After this period, the plate is divided in groups: • (a) test group: […] of the samples were added (test compound) in the concentrations of interest; • (b) positive control group: […] of culture medium were added (100% of cell proliferation); • (c) negative control group: 200 mL of culture medium and […] of the vehicle used were added to dilute the compounds (without cells—zero proliferation); • (d) control group: […] were added of the vehicle used to dilute the compounds. This group is important to evaluate whether the vehicle used interferes in the cell proliferation. OBSERVATION: the treatment with the concentrations of samples (test compounds) and of the controls are carried out in triplicate. • Incubate the plate for 72 hours in a CO2 kiln at 37° C. • After the incubation period, add […] of the solution with DNA marker from the CYQuant Kit and incubate the plate, for 60 minutes, in a CO2 incubator at 37° C. The fluorescence intensity is determined using a fluorescence microplate reader with 485 nm excitation and 530 nm emission detection. The results obtained were normalized relative to the positive control group (100% proliferation). For the compounds there are prepared the storage solutions in the concentrations of: 100 nM, 1 μM, 3 μM, 5 μM, 10 μM and 30 μM (DMSO 10% v/v). While the final concentrations in the test are of: 10 nM, 100 nM, 300 nM, 500 nM, 1000 nM and 3000 nM (in DMSO 1% v/v)."}, "[2]": {"system": "PC3-human prostate cancer cells", "experiment": "Cell proliferation inhibition (CYQuant intracellular DNA), PC3", "assay_type": "cell-based", "details": "for % Cell Proliferation Inhibition (intracellular DNA) PC-3 (average ± E.P.M.): 72 hours", "description": "as §1"}, "[3]": {"system": "DU145-human prostate cancer", "experiment": "Cell proliferation inhibition (CYQuant intracellular DNA), DU145", "assay_type": "cell-based", "details": "for % Cell Proliferation Inhibition (intracellular DNA) DU145 (average ± E.P.M.): 72 hours", "description": "as §1"}, "[4]": {"system": "LNCAP-human prostate cancer cells", "experiment": "Cell proliferation inhibition (CYQuant intracellular DNA), LNCAP", "assay_type": "cell-based", "details": "for % Cell Proliferation Inhibition (intracellular DNA) LNCAP (average ± E.P.M.): 72 hours", "description": "as §1"}, "PDE5A1": {"biological_target": "T1, PDE5A1 (Homo sapiens, UniProt O76074)", "T1 construct": "purchased BPS Bioscience 60350", "experiment": "PDE5A1 fluorescence polarization enzyme assay (BPS Bioscience kit 60350)", "assay_type": "biochemical", "description": "The evaluation of the compound is studied using BPS Bioscience enzyme assay kit (catalogue 60350). The PDE5A1 Assay kit is designed for identification of PDE5A1 inhibitors using fluorescence polarization. The assay is based on the binding of a fluorescent nucleotide monophosphate generated by PDE5A1 enzyme to the binding agent.\nIn this methodology only two simple steps on a microtiter plate are required for PDE5A1 reactions. First, the fluorescently labeled cGMP is incubated with PDE5A1 for 1 hour. Second, the binding agent is added to the reaction mixture to produce a change in fluorescent polarization that can then be measured using a fluorescence reader equipped for the measurement of fluorescence polarization.\nFor the assay the storage reagent FAM-Cyclic-3′,5′-GMP (20 μM) is diluted with PDE assay buffer to achieve the solution with a […]; the PDE5A1 enzyme is thawed and diluted with the PDE buffer obtaining a PDE5A1 solution at 10 μg/mL.\nThe assay compounds are diluted with DMSO 100% (v/v) at a concentration of 1000 μM and subsequently diluted in a Sodium chloride 0.9% solution to obtain a curve of concentrations of interest for the assay. The compounds are diluted in concentrations of: 10 nM, 30 nM, 50 nM, 100 nM, 300 nM, 500 nM, 1 μM, 3 μM, 5 μM (DMSO 10% v/v).\nThe study is comprised of groups: (i) substrate control; (ii) positive control (KIT); (iii) samples in several concentrations; (iv) tadalafil (comparative control). Each parameter (group) is triple labeled.\n• For the 4 groups there is added, to each microplate well, […] of the FAM-Cyclic-3′ reagent, 5′-GMP (200 μM). • To the substrate control group there is added, to each well, […] of vehicle (DMSO 10% v/v) and […] PDE Buffer. • To the positive control group there is added, to each well, […] of vehicle (DMSO 10% v/v). • To the tadalafil group: there is added 5 mL of the solution in the concentrations of interest. • To the test group there is added 5 mL of the sample solution (test compound)\nOBSERVATION: the parameters tested are in triplicate.\nTo begin the reaction, add […] of the PDE5A1 enzyme (diluted as described above) to the microplate wells designated as Positive Control and Samples (test and tadalafil), and incubate the microplate, for 1 hour, at a temperature of 25° C.\nAfter the incubation period, the reaction is interrupted by the addition, in all the wells, of […] of the binding agent solution and the microplate is incubated for 30 minutes, under light stirring, at room temperature. The reading of the microplate is carried out in Polarized Fluorescence (475-495 nm—excitation and 518-538 nm—emission detection) 500 nanoseconds integration time."}, "[5]": {"system": "RT4-human bladder cancer cells", "experiment": "Cell proliferation inhibition (CYQuant intracellular DNA), RT4", "assay_type": "cell-based", "details": "for % Cell Proliferation Inhibition (intracellular DNA) RT4 (average ± E.P.M.): 72 hours", "description": "as §1"}}}
{"substance": "(R)-3-(benzo [d][1, 3]dioxol-5-yl)-7-((S)-1-hydroxypropan-2-yl)-1-(1H-indole-3-yl)-6, 7-dihydro-3H-oxazole [3, 4-a]pyrazine-5, 8-dione with (S)-3-(benzo [d][1,3]dioxol-5-yl)-7-((S)-1-hydroxypropan-2-yl)-1-(1H-indole-3-yl)-6, 7-dihydro-3H-oxazole [3, 4-a]pyrazine-5, 8-dione [BL-241]", "values": [{"measurement": "% Cell Proliferation Inhibition (intracellular DNA) MNK45 (average ± E.P.M.)", "setting": "[1]; MNK45, 100 nM", "result": "25 ± 1", "unit": "%"}, {"measurement": "% Cell Proliferation Inhibition (intracellular DNA) MNK45 (average ± E.P.M.)", "setting": "[1]; MNK45, 300 nM", "result": "10 ± 2", "unit": "%"}, {"measurement": "% Cell Proliferation Inhibition (intracellular DNA) MNK45 (average ± E.P.M.)", "setting": "[1]; MNK45, 500 nM", "result": "2 ± 1", "unit": "%"}, {"measurement": "% Cell Proliferation Inhibition (intracellular DNA) MNK45 (average ± E.P.M.)", "setting": "[1]; MNK45, 1000 nM", "result": "4 ± 1", "unit": "%"}, {"measurement": "% Cell Proliferation Inhibition (intracellular DNA) MNK45 (average ± E.P.M.)", "setting": "[1]; MNK45, 3000 nM", "result": "20 ± 3", "unit": "%"}, {"measurement": "antiproliferative effect (result in words)", "setting": "[2]; PC3 prostate cancer tumor lineage", "result": "presented antiproliferative effect"}, {"measurement": "% Cell Proliferation Inhibition (intracellular DNA) PC-3 (average ± E.P.M.)", "setting": "[2]; PC-3, 10 nM", "result": "27 ± 11", "unit": "%"}, {"measurement": "% Cell Proliferation Inhibition (intracellular DNA) PC-3 (average ± E.P.M.)", "setting": "[2]; PC-3, 100 nM", "result": "36 ± 7", "unit": "%"}, {"measurement": "% Cell Proliferation Inhibition (intracellular DNA) PC-3 (average ± E.P.M.)", "setting": "[2]; PC-3, 300 nM", "result": "42 ± 6", "unit": "%"}, {"measurement": "% Cell Proliferation Inhibition (intracellular DNA) PC-3 (average ± E.P.M.)", "setting": "[2]; PC-3, 500 nM", "result": "46 ± 1", "unit": "%"}, {"measurement": "% Cell Proliferation Inhibition (intracellular DNA) PC-3 (average ± E.P.M.)", "setting": "[2]; PC-3, 1000 nM", "result": "33 ± 3", "unit": "%"}, {"measurement": "% Cell Proliferation Inhibition (intracellular DNA) DU145 (average ± E.P.M.)", "setting": "[3]; DU145, 100 nM", "result": "33 ± 8", "unit": "%"}, {"measurement": "% Cell Proliferation Inhibition (intracellular DNA) DU145 (average ± E.P.M.)", "setting": "[3]; DU145, 300 nM", "result": "17 ± 3", "unit": "%"}, {"measurement": "% Cell Proliferation Inhibition (intracellular DNA) DU145 (average ± E.P.M.)", "setting": "[3]; DU145, 500 nM", "result": "18 ± 2", "unit": "%"}, {"measurement": "% Cell Proliferation Inhibition (intracellular DNA) DU145 (average ± E.P.M.)", "setting": "[3]; DU145, 1000 nM", "result": "22 ± 2", "unit": "%"}, {"measurement": "% Cell Proliferation Inhibition (intracellular DNA) DU145 (average ± E.P.M.)", "setting": "[3]; DU145, 3000 nM", "result": "43 ± 5", "unit": "%"}, {"measurement": "antiproliferative effect (result in words)", "setting": "[3]; DU145 prostate cancer tumor lineage", "result": "presented antiproliferative effect"}, {"measurement": "antiproliferative effect (result in words)", "setting": "[4]; LNCAP prostate cancer tumor lineage", "result": "presented antiproliferative effect"}, {"measurement": "% Cell Proliferation Inhibition (intracellular DNA) LNCAP (average ± E.P.M.)", "setting": "[4]; 10 nM", "result": "25 ± 2", "unit": "%"}, {"measurement": "% Cell Proliferation Inhibition (intracellular DNA) LNCAP (average ± E.P.M.)", "setting": "[4]; 100 nM", "result": "37 ± 3", "unit": "%"}, {"measurement": "% Cell Proliferation Inhibition (intracellular DNA) LNCAP (average ± E.P.M.)", "setting": "[4]; 300 nM", "result": "38 ± 4", "unit": "%"}, {"measurement": "% Cell Proliferation Inhibition (intracellular DNA) LNCAP (average ± E.P.M.)", "setting": "[4]; 500 nM", "result": "44 ± 2", "unit": "%"}, {"measurement": "% Cell Proliferation Inhibition (intracellular DNA) LNCAP (average ± E.P.M.)", "setting": "[4]; 1000 nM", "result": "34 ± 6", "unit": "%"}, {"measurement": "% of Inhibition (PDE5A1)", "setting": "PDE5A1; compound 500 nM", "result": 57, "unit": "%"}, {"measurement": "% of Inhibition (PDE5A1)", "setting": "PDE5A1; compound 1000 nM", "result": 71, "unit": "%"}, {"measurement": "% of Inhibition (PDE5A1)", "setting": "PDE5A1; compound 3000 nM", "result": 88, "unit": "%"}, {"measurement": "PDE5 inhibition (result in words)", "setting": "PDE5A1; concentration series", "result": "capable of inhibiting the PDE5 in a dose-dependent manner"}, {"measurement": "% Cell Proliferation Inhibition (intracellular DNA) RT4 (average ± E.P.M.)", "setting": "[5]; RT4, 100 nM", "result": "28 ± 6", "unit": "%"}, {"measurement": "% Cell Proliferation Inhibition (intracellular DNA) RT4 (average ± E.P.M.)", "setting": "[5]; RT4, 300 nM", "result": "5 ± 2", "unit": "%"}, {"measurement": "% Cell Proliferation Inhibition (intracellular DNA) RT4 (average ± E.P.M.)", "setting": "[5]; RT4, 500 nM", "result": "4 ± 2", "unit": "%"}, {"measurement": "% Cell Proliferation Inhibition (intracellular DNA) RT4 (average ± E.P.M.)", "setting": "[5]; RT4, 1000 nM", "result": "11 ± 8", "unit": "%"}, {"measurement": "% Cell Proliferation Inhibition (intracellular DNA) RT4 (average ± E.P.M.)", "setting": "[5]; RT4, 3000 nM", "result": "57 ± 4", "unit": "%"}, {"measurement": "antiproliferative effect (result in words)", "setting": "[5]; RT4 bladder cancer tumor lineage", "result": "presented antiproliferative effect"}]}
